According to patent US10058097B2, “Methods to increase corn productivity” (Valent BioSciences Corporation, priority 2016, dated 2018):

Legend:
Format in all cases: in vivo
corn [1] = assay: Greenhouse study: GB alone or in combination with GA4, nine days; details: GA4 120 mg/liter, GB 10,000 mg/liter; n = 7 plants
Procedure: (§1) In several of the following examples, corn was grown in greenhouse conditions, which are defined as follows. Seeds of a commercial hybrid variety were sown in Pro-Mix® BX (Pro-Mix is a registered trademark of Premier Horticulture Ltd.) with the addition of Osmocote (14-14-14) and gypsum in three-liter pots. Greenhouses were kept at 25±3° C. under a 16:8 hour photoperiod, with illumination at canopy level of ˜250 μmoles m^−2s^−1. Corn was typically fertigated with Peters 21-5-20+micronutrients, calcium ammonium nitrate and magnesium sulfate. Typical growth rates for corn under these conditions ranged from 4-5 cm/day.
(§2) In most greenhouse studies, spray applications were made. These applications were made in a track sprayer outfitted with a 4001E Teejet® nozzle (Teejet is available from and a registered trademark of Spraying Systems Co., Glendale Heights, Ill., USA) and applied at 40 psi. Although application volumes did vary between some studies, generally, 30 gallons/acre of spray solution was applied. Following spray applications, plants were returned to the greenhouse. Typically, experiments were blocked according to plant size, and a randomized complete block design (RCB) was used.
(§3) Synergy was determined using the following formula, in which a synergy factor is calculated by the Abbott method: % Cexp=A+B−(AB/100), here % Cexp is the expected efficacy and “in which A and B are the increase in growth (or resistance to stress) levels given by the single [plant growth regulators]. If the ratio between the experimentally observed efficacy of the mixture Cobs and the expected efficacy of the mixture is greater than 1, synergistic interactions are present in the mixture” (Gisi, Synergistic Interaction of Fungicides in Mixtures, The American Phytopathological Society, 86:11, 1273-1279, 1996).
In a greenhouse study, the effect of combining GB with GA4 was studied.

corn [2] = assay: Greenhouse study: Gibberellins, (S)-ABA and Glycine betaine on corn growth; details: GA3 or GA4 120 mg/liter, GB 10000 mg/liter, (S)-ABA 8.8 mg/liter
Procedure: as §1, §2
When gibberellins are combined with specific ratios of (S)-(+)-abscisic acid (“(S)-ABA”), a surprising enhancement of corn growth after application is often observed. The addition of GB to gibberellin+(S)-ABA spray combinations further increases the growth-promoting activity of the mixtures, as is shown in Table 6.

corn plants [3] = assay: Greenhouse study: growth of corn after V3 spray with GA3 or GB, nine days; details: non-stressed greenhouse; spray at V3; GA3 120 mg/liter, GB 3000 mg/liter; n = 7
Procedure: as §1, §2
In a greenhouse study conducted in Long Grove, Ill., corn plants were sprayed at V3 stage with solutions containing a non-ionic surfactant (0.25%, v/v) at 30 gallons of spray solution/acre and growth was followed for nine days.
as §3
Based on a conservative approach, synergy was determined to be present at ratios of ≥1.10. When grown under non-stressed conditions, GA3 growth was synergized by the addition of 3,000 mg/liter glycine betaine (“GB”), with a synergy factor of 1.65 for growth and 1.68 for growth rate while dry weight/plant was not synergistic with a synergy factor of 0.95.

corn plants [4] = assay: Chilling stress study (10° C. for five days) after spray with GA3 or GB; details: chilling stress at 10° C. for five days; GA3 120 mg/liter, GB 3000 mg/liter; n = 7 plants
Procedure: In stress studies, plants were subjected to various stresses. In cold stress studies, after spraying, plants were grown in the greenhouse for an additional 48 hours before being measured and moved to a CMP6050 CONVIRON® chamber kept at 10° C. (Conviron is a registered trademark of Controlled Environments Limited Corporation). Illumination was at ˜225 μMoles, and light:dark conditions were on a 12:12 hour photoperiod. After 120 hours of chilling, plants were removed from the cold, measured, and returned to the greenhouse for 48 hours prior to harvest.
as §3
In a greenhouse and growth room study conducted in Long Grove, Ill., corn plants of a commonly grown hybrid were subjected to the following stress regimen: at two days post-foliar application, plants were moved into a controlled environment chamber, where the temperature was maintained at 10° C. with a 12:12 hour photoperiod for five days. At the end of the chilling period, the corn was moved back to the greenhouse for two days before destructive harvest.

corn [5] = assay: Nutrient stress greenhouse study, GA3 and/or GB, 7 days; details: GA3 120 mg/liter, GB 10,000 mg/liter; for Change in Height: n = 7 plants
Procedure: as §3
During rainy periods in March-May in the Midwestern United States, nitrogen fertilizer for corn is often limited due to a combination of leaching and mineralization. GB included with GA3 can help overcome the slow growth caused by low nutrients. In a greenhouse study in Long Grove, Ill. we evaluated the effect of GA3, GB and the combination under ‘normal nutrient’ and limited nutrient conditions.

potted corn plants [6] = assay: Chronic drought stress greenhouse study, potted corn, 14 days; details: 20 Percent Volumetric Water Content, 120 mg/liter GA3, 3000 mg/liter GB, n = 5
Procedure: In drought stress studies, corn plants were sprayed at the V4 stage with solutions containing a non-ionic surfactant (0.25%, v/v) at 30 gallons of spray solution/acre and growth was determined by change in height from time of treatment or fresh and dry shoot weight measurements 14 days later.
In greenhouse drought stress studies, corn plants were treated and subsequently watered with an automated irrigation system that maintained the soil moisture in the pots at 45% or 20% volumetric water content (“VWC”). Plants set to 20% after treatment took about 4 days without the automated system adding water to those pots to reach 20% VWC and then the automated system added water as needed to maintain 20% VWC. Total soil moisture capacity was 45% VWC and 20% VWC represented drought stress conditions. This would be considered chronic stress, as a lower level of VWC was maintained throughout the experiment after treatment.

greenhouse-grown maize [7] = assay: Leaf chlorophyll by SPAD meter, GA3 dose +/- GB; details: GA3 0 mg/liter, GB 10000 mg/liter; n = 8 plants
Procedure: In the same study, leaf chlorophyll was monitored by measurements with a SPAD meter (Minolta Model 502; Ramsey, N.J.). In this study, the chlorophyll level in the most recently fully-expanded leaf was measured at five different points and the results averaged.

greenhouse-grown maize [8] = assay: Greenhouse study: effect of GA3 dose +/- GB on growth, 7 and 14 days; details: GA3 0 mg/liter, GB 10000 mg/liter
Procedure: as §1, §2, §3
In a separate study, the effect of one rate of GB on various doses of GA3 was studied.

potted corn plants [9] = assay: Acute drought stress greenhouse study, potted corn, 7 and 14 days; details: acute drought stressed; 120 ppm GA3, 3000 ppm GB; spray at V4
Procedure: In a separate acute drought stress greenhouse study conducted in Long Grove, Ill., corn plants were sprayed at V4 stage with solutions containing a non-ionic surfactant (0.25%, v/v) at 30 gallons of spray solution/acre and growth was determined by shoot height increase 7 and 14 days later. After treatment corn plants were not watered with the exception of one treatment of control (aqueous surfactant solution) that were watered as needed (well-watered control).

Question: What does the source list for `C=C1C[C@]23C[C@H]1CC[C@H]2[C@@]12CC[C@H](O)[C@@](C)(C(=O)O1)[C@H]2[C@@H]3C(=O)O` [GA4, gibberellin A4]?
Answer: Dry Weight (corn [1]): 7.68 g; Growth Rate (corn [1]): 7.1 cm/day; Plant Growth over 9 days (corn [1]): 64.1 cm; 7 days Change in Height (corn [2]): 33.9 cm; 14 days Change in Height (corn [2]): 62.2 cm; Dry Weight (corn [2]): 8.1 g

Question: Which “Dry Weight” value (corn [1]) does the source give for `C[N+](C)(C)CC(=O)[O-]` [GB, Glycine betaine] here?
Answer: 7.47 g

Question: What about the “Growth Rate” value (corn [1]) of the same compound?
Answer: 6.1 cm/day

Question: What about the “Plant Growth over 9 days” value (corn [1]) of the same compound?
Answer: 55.2 cm

Question: And the “Dry Weight/Plant” value (corn plants [3])?
Answer: 2.75 g

Question: What about the “Growth Rate” value (corn plants [3]) of the same compound?
Answer: 4.49 cm/day

Question: And the “Growth over 9 days” value (corn plants [3])?
Answer: 40.4 cm

Question: What about the “Growth Rate” value (corn plants [4]) of the same compound?
Answer: 2.16 cm/day

Question: What about the “Growth over 9 days” value (corn plants [4]) of the same compound?
Answer: 19.41 cm

Question: What about the “Leaf Area of L1-L5” value (corn plants [4]) of the same compound?
Answer: 356.47 cm^2

Question: And the “Dry Weight” value (corn [5]; Low Nutrients)?
Answer: 2.79 g

Question: What about the “Leaf Area (L1-L6)” value (corn [5]; Low Nutrients) of the same compound?
Answer: 611.73 cm^2

Question: What about the “Change in Height” value (corn [5]; Low Nutrients) of the same compound?
Answer: 24.54 cm

Question: What about the “Dry Weight” value (corn [5]; Normal Nutrients) of the same compound?
Answer: 3.25 g

Question: What about the “Leaf Area (L1-L6)” value (corn [5]; Normal Nutrients) of the same compound?
Answer: 656.76 cm^2

Question: And the “Change in Height” value (corn [5]; Normal Nutrients)?
Answer: 35.37 cm

Question: And the “Percent Dry Weight of Drought Stressed Control” value (potted corn plants [6])?
Answer: 94.33%

Question: What about the “Percent Fresh Weight of Drought Stressed Control” value (potted corn plants [6]) of the same compound?
Answer: 93.16%

Question: What about the “Chlorophyll (SPAD reading) 14 days” value (greenhouse-grown maize [7]) of the same compound?
Answer: 34.0 SPAD reading

Question: What about the “Growth Rate, 0-7 day(s)” value (greenhouse-grown maize [8]) of the same compound?
Answer: 2.51 cm/day

Question: What about the “Growth Rate, 0-14 day(s)” value (greenhouse-grown maize [8]) of the same compound?
Answer: 6.23 cm/day

Question: And the “Plant Growth over 14 days” value (greenhouse-grown maize [8])?
Answer: 43.6 cm

Question: And the “Plant Growth over 7 days” value (greenhouse-grown maize [8]; n = 8 plants)?
Answer: 17.6 cm

Question: And the “Shoot Growth 7 days after treatment as Percent Increase as compared to Drought Stressed Control” value (potted corn plants [9])?
Answer: 95.9%

Question: What about the “Shoot Growth 14 days after treatment as Percent Increase as compared to Drought Stressed Control” value (potted corn plants [9]) of the same compound?
Answer: 97.6%
